Measured values: patent publication US11608338B2, “Imidazolonylquinolines and the use thereof as ATM kinase inhibitors” (priority 2015, dated 2023)

Tests used:
Type in all cases: biochemical
[1] = target: PI3K (p120γ) (human) (Homo sapiens (Human), UniProt P48736); assay: PI3K (p120γ) (human), non-radioactive assay (HTRF); conditions: ATM versus PI3Kgamma
Protocol: PI3K (p120γ) (Human), Non-Radioactive Assay
(§1) PI3K (p120γ) (human) was incubated in an assay buffer comprising 10 μM phosphatidylinositol 4,5-bisphosphate and MgATP (concentration as necessary). The reaction was initiated by addition of MgATP solution. After an incubation time of 30 min at room temperature, the reaction was stopped by addition of a solution consisting of EDTA and biotinylated phosphatidylinositol 3,4,5-trisphosphate. Finally, the detection buffer, consisting of a europium-labelled anti-GST monoclonal antibody, a GST-labelled GRP1 PH domain and streptavidin allophycocyanin, was added. The plate was read out via homogeneous time-resolved fluorescence (HTRF) and the corresponding signals were evaluated via the formula HTRF=10000×(Em665 nm/Em620 nm). • MgATP=magnesium 5′-O-[hydroxy({[(hydroxyphosphinato)oxy]phosphinato}oxy)phosphoryl]adenosine • MgCl2=magnesium dichloride • EGTA=ethylene glycol bis(aminoethyl ether) N,N,N′,N′-tetraacetic acid • Tween 20=polysorbate 20 Medicament/Pharmaceutical Composition

[2] = target: mTOR (human) (Homo sapiens (Human), UniProt P42345); assay: mTOR (human) radiometric kinase assay; conditions: ATM versus mTOR
Protocol: Furthermore, the effect, in particular inhibition, of other kinases and thus the selectivity of the compounds according to the invention can be determined with the aid of the following assay:
mTOR (human) was incubated with 50 mM HEPES pH 7.5, 1 mM EGTA, 0.01% Tween 20, 2 mg/ml of the substrate, 3 mM MnCl2 and [γ-^33P-ATP] (specific activity approximately 500 cpm/pmol, concentration as necessary). The reaction was initiated by addition of MgATP solution. After incubation at room temperature for 40 minutes, the reaction was stopped by addition of 3% phosphoric acid. 10 μl of the reaction solution were then transferred dropwise onto a P30 filtermat and washed three times for 5 min in 75 mM phosphoric acid and once in methanol, dried and evaluated by means of liquid scintillation counting.

[3] = target: PI3K p110β/p85α (human) (Homo sapiens (Human), UniProt P42338); assay: PI3K p110β/p85α (human), non-radioactive assay (HTRF); conditions: ATM versus PI3Kbeta
Protocol: PI3K p110β/p85α (Human), Non-Radioactive Assay
as §1, with “p110β/p85α” for “(p120γ)”, “nm).” for “nm). • MgATP=magnesium 5′-O-[hydroxy({[(hydroxyphosphinato)oxy]phosphinato}oxy)phosphoryl]adenosine • MgCl2=magnesium dichloride • EGTA=ethylene glycol bis(aminoethyl ether) N,N,N′,N′-tetraacetic acid • Tween 20=polysorbate 20 Medicament/Pharmaceutical Composition”

[4] = target: PI3K p110δ/p85α (human) (Homo sapiens (Human), UniProt O00329); assay: PI3K p110δ/p85α (human), non-radioactive assay (HTRF); conditions: ATM versus PI3Kdelta
Protocol: PI3K p110δ/p85α (Human), Non-Radioactive Assay
as §1, with “p110δ/p85α” for “(p120γ)”, “nm).” for “nm). • MgATP=magnesium 5′-O-[hydroxy({[(hydroxyphosphinato)oxy]phosphinato}oxy)phosphoryl]adenosine • MgCl2=magnesium dichloride • EGTA=ethylene glycol bis(aminoethyl ether) N,N,N′,N′-tetraacetic acid • Tween 20=polysorbate 20 Medicament/Pharmaceutical Composition”

[5] = target: PI3K p110α/p85α (human) (Homo sapiens (Human), UniProt P42336); assay: PI3K p110α/p85α (human), non-radioactive assay (HTRF); conditions: ATM versus PI3Kalpha
Protocol: PI3K p110α/p85α (Human), Non-Radioactive Assay
PI3K p110α/p85α (human) was incubated in an assay buffer comprising 10 μM phosphatidylinositol 4,5-bisphosphate and MgATP (concentration as necessary). The reaction was initiated by addition of MgATP solution. After incubation at room temperature for 40 minutes, the reaction was stopped by addition of a solution consisting of EDTA and biotinylated phosphatidylinositol 3,4,5-trisphosphate. Finally, the detection buffer, consisting of a europium-labelled anti-GST monoclonal antibody, a GST-labelled GRP1 PH domain and streptavidin allophycocyanin, was added. The plate was read out via homogeneous time-resolved fluorescence (HTRF) and the corresponding signals were evaluated via the formula HTRF=10000×(Em665 nm/Em620 nm).

Sequence of PI3K p110α/p85α (human) (P42336 whole entry): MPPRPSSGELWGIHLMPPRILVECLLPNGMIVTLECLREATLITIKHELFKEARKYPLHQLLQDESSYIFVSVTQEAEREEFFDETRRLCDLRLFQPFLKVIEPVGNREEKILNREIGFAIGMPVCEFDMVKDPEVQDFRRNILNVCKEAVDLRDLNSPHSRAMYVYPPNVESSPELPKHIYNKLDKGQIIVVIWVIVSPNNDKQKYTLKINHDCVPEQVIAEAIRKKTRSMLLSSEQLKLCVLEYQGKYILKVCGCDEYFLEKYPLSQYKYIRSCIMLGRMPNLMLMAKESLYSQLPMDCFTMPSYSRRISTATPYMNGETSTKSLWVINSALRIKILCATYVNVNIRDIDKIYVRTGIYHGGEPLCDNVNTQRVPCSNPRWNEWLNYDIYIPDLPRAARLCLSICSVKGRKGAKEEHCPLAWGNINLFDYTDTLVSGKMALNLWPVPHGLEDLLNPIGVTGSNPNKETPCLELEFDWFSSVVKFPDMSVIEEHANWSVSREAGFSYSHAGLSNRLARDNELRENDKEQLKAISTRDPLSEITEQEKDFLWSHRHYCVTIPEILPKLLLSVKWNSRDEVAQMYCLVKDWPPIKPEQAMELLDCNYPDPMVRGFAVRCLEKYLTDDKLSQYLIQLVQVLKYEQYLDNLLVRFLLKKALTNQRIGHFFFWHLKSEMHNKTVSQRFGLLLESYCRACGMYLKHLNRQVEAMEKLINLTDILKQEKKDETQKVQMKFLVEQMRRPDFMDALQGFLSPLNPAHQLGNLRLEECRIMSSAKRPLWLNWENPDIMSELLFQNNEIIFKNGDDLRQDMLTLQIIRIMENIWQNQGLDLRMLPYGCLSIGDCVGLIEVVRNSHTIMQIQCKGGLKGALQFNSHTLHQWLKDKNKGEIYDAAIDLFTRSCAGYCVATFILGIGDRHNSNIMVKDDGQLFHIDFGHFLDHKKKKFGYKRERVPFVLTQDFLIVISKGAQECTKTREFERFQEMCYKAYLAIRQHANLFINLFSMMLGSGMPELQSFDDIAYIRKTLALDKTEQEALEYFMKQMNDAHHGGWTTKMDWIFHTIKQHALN
Sequence of PI3K p110α/p85α (human) (P27986 whole entry partner): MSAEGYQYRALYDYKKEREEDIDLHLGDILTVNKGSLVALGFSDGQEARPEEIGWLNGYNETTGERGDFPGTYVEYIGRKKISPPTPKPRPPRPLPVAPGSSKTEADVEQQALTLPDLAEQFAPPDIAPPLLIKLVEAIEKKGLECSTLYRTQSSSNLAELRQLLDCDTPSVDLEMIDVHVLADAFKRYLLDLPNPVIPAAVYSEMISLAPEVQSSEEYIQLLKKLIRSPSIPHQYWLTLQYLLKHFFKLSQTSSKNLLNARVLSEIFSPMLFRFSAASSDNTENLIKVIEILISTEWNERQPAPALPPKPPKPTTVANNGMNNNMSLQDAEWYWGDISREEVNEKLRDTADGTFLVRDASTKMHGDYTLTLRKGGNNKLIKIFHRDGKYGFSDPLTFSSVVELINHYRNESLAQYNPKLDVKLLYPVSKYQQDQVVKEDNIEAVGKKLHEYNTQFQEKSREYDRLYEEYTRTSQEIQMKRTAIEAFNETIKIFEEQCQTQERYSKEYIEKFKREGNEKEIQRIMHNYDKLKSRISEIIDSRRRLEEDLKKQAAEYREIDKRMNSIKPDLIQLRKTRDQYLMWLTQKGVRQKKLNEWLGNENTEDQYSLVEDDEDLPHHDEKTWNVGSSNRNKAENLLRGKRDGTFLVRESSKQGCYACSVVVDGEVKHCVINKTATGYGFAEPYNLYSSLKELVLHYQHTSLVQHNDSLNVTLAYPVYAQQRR
Sequence of PI3K p110δ/p85α (human) (O00329 whole entry): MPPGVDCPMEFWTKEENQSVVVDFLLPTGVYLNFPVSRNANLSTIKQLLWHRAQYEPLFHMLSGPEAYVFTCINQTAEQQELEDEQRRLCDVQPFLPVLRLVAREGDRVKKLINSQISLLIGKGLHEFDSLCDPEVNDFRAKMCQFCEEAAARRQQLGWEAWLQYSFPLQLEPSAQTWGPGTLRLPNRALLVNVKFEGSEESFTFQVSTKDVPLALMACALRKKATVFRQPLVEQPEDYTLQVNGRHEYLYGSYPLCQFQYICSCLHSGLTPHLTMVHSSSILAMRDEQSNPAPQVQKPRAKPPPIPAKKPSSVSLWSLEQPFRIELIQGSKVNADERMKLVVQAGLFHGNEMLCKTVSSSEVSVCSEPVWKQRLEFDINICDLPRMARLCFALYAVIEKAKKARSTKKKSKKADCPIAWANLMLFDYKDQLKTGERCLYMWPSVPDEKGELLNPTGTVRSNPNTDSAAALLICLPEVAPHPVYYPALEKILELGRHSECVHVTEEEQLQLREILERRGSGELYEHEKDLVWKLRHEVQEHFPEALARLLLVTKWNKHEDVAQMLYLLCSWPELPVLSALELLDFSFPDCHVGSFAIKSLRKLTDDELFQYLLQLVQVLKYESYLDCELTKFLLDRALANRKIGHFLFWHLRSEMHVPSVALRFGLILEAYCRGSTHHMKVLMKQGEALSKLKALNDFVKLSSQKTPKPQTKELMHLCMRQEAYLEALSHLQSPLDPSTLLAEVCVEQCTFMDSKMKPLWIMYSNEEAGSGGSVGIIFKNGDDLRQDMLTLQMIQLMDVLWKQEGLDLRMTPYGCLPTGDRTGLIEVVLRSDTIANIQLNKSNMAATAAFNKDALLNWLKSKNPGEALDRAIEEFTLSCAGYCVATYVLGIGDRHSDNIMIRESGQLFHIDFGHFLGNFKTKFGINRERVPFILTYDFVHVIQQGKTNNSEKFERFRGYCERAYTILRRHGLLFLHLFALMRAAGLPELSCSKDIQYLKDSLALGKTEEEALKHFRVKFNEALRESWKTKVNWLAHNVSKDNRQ
Sequence of PI3K p110δ/p85α (human) (P27986 whole entry partner): as the sequence (P27986 whole entry partner) above
Sequence of PI3K p110β/p85α (human) (P42338 whole entry): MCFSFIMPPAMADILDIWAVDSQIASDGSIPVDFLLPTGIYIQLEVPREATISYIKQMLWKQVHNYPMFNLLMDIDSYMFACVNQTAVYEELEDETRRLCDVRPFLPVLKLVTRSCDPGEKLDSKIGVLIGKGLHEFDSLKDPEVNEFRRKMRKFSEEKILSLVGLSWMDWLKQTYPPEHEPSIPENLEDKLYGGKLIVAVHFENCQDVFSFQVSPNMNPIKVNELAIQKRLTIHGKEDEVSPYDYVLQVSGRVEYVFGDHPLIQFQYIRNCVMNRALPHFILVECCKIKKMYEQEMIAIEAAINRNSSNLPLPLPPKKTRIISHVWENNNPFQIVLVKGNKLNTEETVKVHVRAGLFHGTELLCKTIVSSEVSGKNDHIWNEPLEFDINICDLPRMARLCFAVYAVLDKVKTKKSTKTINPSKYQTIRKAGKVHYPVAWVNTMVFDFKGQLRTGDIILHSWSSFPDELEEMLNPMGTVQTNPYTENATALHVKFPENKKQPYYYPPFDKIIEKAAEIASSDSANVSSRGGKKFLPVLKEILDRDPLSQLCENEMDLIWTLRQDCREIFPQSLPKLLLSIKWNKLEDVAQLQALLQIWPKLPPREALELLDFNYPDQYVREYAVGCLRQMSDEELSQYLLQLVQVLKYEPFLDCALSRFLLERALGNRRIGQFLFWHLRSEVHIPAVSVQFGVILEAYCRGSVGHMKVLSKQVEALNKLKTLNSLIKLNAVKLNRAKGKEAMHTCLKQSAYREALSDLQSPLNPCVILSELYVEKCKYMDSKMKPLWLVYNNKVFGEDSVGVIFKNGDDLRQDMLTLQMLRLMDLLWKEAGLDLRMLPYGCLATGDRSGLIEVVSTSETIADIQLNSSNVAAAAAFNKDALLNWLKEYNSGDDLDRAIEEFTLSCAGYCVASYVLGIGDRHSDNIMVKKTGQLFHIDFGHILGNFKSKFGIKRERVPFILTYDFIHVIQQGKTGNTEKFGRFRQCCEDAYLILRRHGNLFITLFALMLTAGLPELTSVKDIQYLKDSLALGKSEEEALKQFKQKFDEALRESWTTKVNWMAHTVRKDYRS
Sequence of PI3K p110β/p85α (human) (P27986 whole entry partner): as the sequence (P27986 whole entry partner) above
Sequence of PI3K (p120γ) (human) (P48736 whole entry): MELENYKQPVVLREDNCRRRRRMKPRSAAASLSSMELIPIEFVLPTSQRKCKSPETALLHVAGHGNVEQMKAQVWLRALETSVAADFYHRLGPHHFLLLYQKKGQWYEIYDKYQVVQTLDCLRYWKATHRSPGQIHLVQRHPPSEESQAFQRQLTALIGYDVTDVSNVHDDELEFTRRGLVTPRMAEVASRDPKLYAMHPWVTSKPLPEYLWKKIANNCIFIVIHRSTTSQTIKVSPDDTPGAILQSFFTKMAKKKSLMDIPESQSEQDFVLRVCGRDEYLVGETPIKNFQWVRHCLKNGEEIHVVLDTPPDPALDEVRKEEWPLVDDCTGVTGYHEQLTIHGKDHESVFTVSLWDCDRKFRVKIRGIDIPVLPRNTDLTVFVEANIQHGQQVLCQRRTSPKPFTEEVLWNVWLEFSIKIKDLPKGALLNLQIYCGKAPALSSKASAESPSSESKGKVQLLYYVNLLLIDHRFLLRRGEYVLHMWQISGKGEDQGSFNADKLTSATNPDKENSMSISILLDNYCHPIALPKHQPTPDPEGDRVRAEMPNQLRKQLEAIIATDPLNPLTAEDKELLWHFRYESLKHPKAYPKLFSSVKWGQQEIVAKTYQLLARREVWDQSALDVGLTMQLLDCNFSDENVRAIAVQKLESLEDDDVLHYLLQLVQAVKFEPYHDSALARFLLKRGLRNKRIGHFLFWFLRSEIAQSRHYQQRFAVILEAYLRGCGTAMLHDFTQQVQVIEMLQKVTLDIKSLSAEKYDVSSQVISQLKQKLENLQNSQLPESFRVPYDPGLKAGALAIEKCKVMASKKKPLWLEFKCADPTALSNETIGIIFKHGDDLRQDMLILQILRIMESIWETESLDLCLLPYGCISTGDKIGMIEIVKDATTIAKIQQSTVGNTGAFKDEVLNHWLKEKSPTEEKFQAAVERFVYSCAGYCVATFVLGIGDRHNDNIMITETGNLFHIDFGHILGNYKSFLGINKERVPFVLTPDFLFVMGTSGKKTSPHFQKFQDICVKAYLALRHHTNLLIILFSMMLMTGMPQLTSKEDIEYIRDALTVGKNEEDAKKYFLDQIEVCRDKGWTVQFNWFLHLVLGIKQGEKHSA

COc1cc2ncc3c(c2cc1-c1ccc2nc(C)[nH]c2c1)n(-c1c(F)cncc1OC)c(=O)n3C [Example 136, 1-(3-Fluoro-5-methoxy-pyridin-4-yl)-7-methoxy-3-methyl-8-(2-methyl-3H-benzoimidazol-5-yl)-1,3-dihydroimidazo[4,5-c]-quinolin-2-one]
at least 2000 times: ratio of IC50 (ATM) and IC50 (PI3Kgamma), selectivity with respect to PI3Kgamma [1] | ratio IC50 (ATM):IC50 (mTOR), selectivity with respect to mTOR [2] | ratio IC50 (ATM):IC50 (PI3Kbeta), selectivity with respect to PI3Kbeta [3]

CCc1cncc(F)c1-n1c(=O)n(C)c2cnc3cc(OC)c(-c4cn[nH]n4)cc3c21 [Example 125, 1-(3-Ethyl-5-fluoropyridin-4-yl)-7-methoxy-3-methyl-8-(2H-1,2,3-triazol-4-yl)-1,3-dihydroimidazo[4,5-c] quinolin-2-one]
at least 2000 times: ratio of IC50 (ATM) and IC50 (PI3Kgamma), selectivity with respect to PI3Kgamma [1] | ratio of IC50 (ATM) and IC50 (PI3Kdelta), selectivity with respect to PI3Kdelta [4] | ratio IC50 (ATM):IC50 (mTOR), selectivity with respect to mTOR [2] | ratio IC50 (ATM):IC50 (PI3Kbeta), selectivity with respect to PI3Kbeta [3] | ratio of IC50 (ATM) and IC50 (PI3Kalpha), selectivity with respect to PI3Kalpha [5]

COc1cc2ncc3[nH]c(=O)n(-c4ncc(F)cc4F)c3c2cc1-c1cn(C)nc1C [Example 108, 1-(3,5-Difluoropyridin-2-yl)-8-(1,3-dimethyl-1H-pyrazol-4-yl)-7-methoxy-1,3-dihydroimidazo[4,5-c]-quinolin-2-one]
at least 2000 times: ratio of IC50 (ATM) and IC50 (PI3Kgamma), selectivity with respect to PI3Kgamma [1] | ratio of IC50 (ATM) and IC50 (PI3Kdelta), selectivity with respect to PI3Kdelta [4] | ratio IC50 (ATM):IC50 (PI3Kbeta), selectivity with respect to PI3Kbeta [3] | ratio of IC50 (ATM) and IC50 (PI3Kalpha), selectivity with respect to PI3Kalpha [5]

COc1cc2ncc3c(c2cc1-c1cnn(C)c1)n(-c1ncc(OCS(C)(=O)=O)cc1F)c(=O)n3C [Example 201, 1-(3-Fluoro-5-methyl-sulfonylmethoxypyridin-2-yl)-7-methoxy-3-methyl-8-(1-methyl-1H-pyrazol-4-yl)-1,3-dihydroimidazo[4,5-c]-quinolin-2-one]
at least 2000 times: ratio of IC50 (ATM) and IC50 (PI3Kgamma), selectivity with respect to PI3Kgamma [1] | ratio of IC50 (ATM) and IC50 (PI3Kdelta), selectivity with respect to PI3Kdelta [4] | ratio IC50 (ATM):IC50 (mTOR), selectivity with respect to mTOR [2] | ratio IC50 (ATM):IC50 (PI3Kbeta), selectivity with respect to PI3Kbeta [3] | ratio of IC50 (ATM) and IC50 (PI3Kalpha), selectivity with respect to PI3Kalpha [5]

COc1ccc(-c2cc3c(cc2OC)ncc2c3n(-c3c(F)cncc3OC)c(=O)n2C)cn1 [Example 137, 1-(3-Fluoro-5-methoxy-pyridin-4-yl)-7-methoxy-8-(6-methoxypyridin-3-yl)-3-methyl-1,3-dihydroimidazo-[4,5-c]quinolin-2-one]
at least 2000 times: ratio IC50 (ATM):IC50 (PI3Kbeta), selectivity with respect to PI3Kbeta [3]

[2H]C([2H])([2H])Oc1cncc(F)c1-n1c(=O)n(C)c2cnc3cc(OC)c(-c4cnn(C)c4)cc3c21 [Example 145, 1-[3-Fluoro-5-(trideuterio-methoxy)-4-pyridyl]-7-methoxy-3-methyl-8-(1-methylpyrazol-4-yl)imidazo-[4,5-c]quinolin-2-one]
at least 2000 times: ratio of IC50 (ATM) and IC50 (PI3Kgamma), selectivity with respect to PI3Kgamma [1] | ratio of IC50 (ATM) and IC50 (PI3Kdelta), selectivity with respect to PI3Kdelta [4] | ratio IC50 (ATM):IC50 (mTOR), selectivity with respect to mTOR [2] | ratio IC50 (ATM):IC50 (PI3Kbeta), selectivity with respect to PI3Kbeta [3]

COc1ccc(-c2cc3c(cc2OC)ncc2c3n(-c3cn(C)nc3F)c(=O)n2C)cn1 [Example 159, 1-(3-Fluoro-1-methyl-1H-pyrazo1-4-yl)-7-methoxy-8-(6-methoxypyridin-3-yl)-3-methyl-1,3-dihydroimidazo-[4,5-c]quinolin-2-one]
at least 2000 times: ratio IC50 (ATM):IC50 (mTOR), selectivity with respect to mTOR [2] | ratio IC50 (ATM):IC50 (PI3Kbeta), selectivity with respect to PI3Kbeta [3]
